Common to all, as to test: ≥ marks a high value that may be exact or a test limit, other limits are often not marked, values filed in µg/mL are converted to µM
Assay [1] concerns Acinetobacter baumannii b-03.
The test system of assay [2] is Acinetobacter baumannii b-04.
In assay [3] the test system is Acinetobacter baumannii b-02.
Assay [4] relates to Pseudomonas aeruginosa.
For assay [5], the system named is Acinetobacter baumannii b-01.
Assay [6] deals with Mycobacterium tuberculosis.
Assay [7] relates to Klebsiella pneumoniae.
Assay [8] has as its system Acinetobacter baumannii ATCC 19606R.
Assay [9] has as its system Staphylococcus aureus 30371.
In assay [10] the test system is Klebsiella pneumoniae ATCC 13883.
Assay [11] relates to Enterococcus faecalis CDC 21.
Assay [12] has as its system Salmonella enterica serovar typhimurium MS7953s.
In assay [13] the test system is Enterococcus faecium.
Assay [14] has as its system Salmonella enterica subsp. enterica serovar Typhimurium ATCC 14028s.
For assay [15], the system named is Enterococcus faecium 94-132.
The subject of assay [16] is Batrachochytrium dendrobatidis.
The subject of assay [17] is Pseudomonas aeruginosa SBI-N.
Assay [18] concerns Escherichia coli ATCC 25922.
Assay [19] relates to Staphylococcus aureus ATCC 29213.
Assay [20] relates to Pseudomonas aeruginosa MR2123.
Assay [21] has as its system Streptococcus agalactiae ATCC 12386.
Assay [22] has as its system Escherichia coli ML-35p.
Assay [23] concerns Pseudomonas aeruginosa ATCC 27853.
The test system of assay [24] is Pseudomonas aeruginosa MR3007.
In assay [25] the test system is Staphylococcus aureus 28841.
Assay [26] deals with Staphylococcus aureus 930918-3.
Assay [27] has as its system Escherichia coli BAS 849.
Assay [28] concerns Staphylococcus aureus ATCC 25923.
Assay [29] concerns Mycobacterium avium.
Assay [30] concerns Escherichia coli mcr106.
In assay [31] the test system is Enterococcus faecalis ATCC 29212.
Assay [32] concerns Mycobacterium tuberculosis H37Rv.
The test system of assay [33] is Acinetobacter baumannii ATCC 19606.
In assay [34] the test system is Listeria monocytogenes EGD.
Assay [35] has as its system Candida albicans ATCC 2002.
Assay [36] deals with Shigella dysenteriae.
The test system of assay [37] is Bacillus cereus.
In assay [38] the test system is Bacillus pumilus.
In assay [39] the test system is Staphylococcus aureus ATCC 2592.
Assay [40] concerns Acinetobacter calcoaceticus.
In assay [41] the test system is Pseudomonas aeruginosa ATCC 9027.
Assay [42] has as its system Staphylococcus aureus USA 100.
The subject of assay [43] is Staphylococcus aureus USA 300.
Assay [44] deals with Cryptococcus neoformans ATCC 208821.
The subject of assay [45] is Fusarium oxysporum.
Assay [46] has as its system Fusarium solani.
The subject of assay [47] is Psychrobacter faecalis X29.
For assay [48], the system named is Rhodococcus rhodochrous X15.

Converted amounts (≈) assume the structure as drawn.

The values below come from DBAASP.

With `CC[C@H](C)[C@H](NC(=O)[C@H](Cc1ccccc1)NC(=O)[C@H](CO)NC(=O)[C@H](CCCCN)NC(=O)[C@H](Cc1c[nH]c2ccccc12)NC(=O)[C@@H](N)CCCCN)C(=O)N[C@@H](CCCCN)C(=O)N[C@@H](CCCCN)C(=O)N[C@@H](CC(C)C)C(=O)N[C@H](C(=O)N[C@@H](CO)C(=O)N[C@@H](CCCCN)C(=O)N[C@@H](Cc1ccccc1)C(=O)N[C@@H](CC(C)C)C(=O)N[C@@H](Cc1cnc[nH]1)C(=O)N[C@@H](CO)C(=O)N[C@@H](C)C(=O)N[C@@H](CCCCN)C(=O)N[C@@H](CCCCN)C(=O)N[C@@H](Cc1ccccc1)C(N)=O)[C@@H](C)O` [KWKSFIKKLTSKFLHSAKKF], the minimal inhibitory concentration (MIC) in assay [1] worked out at 2.55 µM (≈ 6.25 µg/mL); in [2] it was 1.27 µM (≈ 3.12 µg/mL); in assay [3], 2.55 µM (≈ 6.25 µg/mL); in [4], 1.27 µM (≈ 3.12 µg/mL); in [5], 1.27 µM (≈ 3.12 µg/mL).

Regarding `CC[C@H](C)[C@H](NC(=O)CN)C(=O)NCC(=O)N[C@@H](CCCCN)C(=O)N[C@@H](Cc1ccccc1)C(=O)N[C@@H](CC(C)C)C(=O)N[C@@H](Cc1c[nH]cn1)C(=O)N[C@@H](CO)C(=O)N[C@@H](C)C(=O)NCC(=O)N[C@@H](CCCCN)C(=O)N[C@@H](Cc1ccccc1)C(=O)NCC(=O)N[C@@H](CCCCN)C(=O)N[C@@H](C)C(=O)N[C@@H](Cc1ccccc1)C(=O)N[C@H](C(=O)NCC(=O)N[C@@H](CCC(=O)O)C(=O)N[C@H](C(=O)N[C@@H](CCSC)C(=O)N[C@@H](CCCCN)C(=O)N[C@@H](CO)C(=O)O)[C@@H](C)CC)C(C)C` [GIGKFLHSAGKFGKAFVGEIMKS], the minimal inhibitory concentration (MIC) in [6] is at least 53.1 µM; in [7], 0.747 µM (≈ 1.8 µg/mL); in [8] it was 26.6 µM (≈ 64 µg/mL); in assay [9], at least 83 µM; in assay [10], at least 104 µM; in [11], 3.03 µM (≈ 7.3 µg/mL). Besides, the MIC in assay [12] is 0.249 µM (≈ 0.6 µg/mL); in assay [13], 1.66 µM (≈ 4 µg/mL); in [14], 0.498 µM (≈ 1.2 µg/mL); in [15], 1.16 µM (≈ 2.8 µg/mL); in [16], at least 47 µM; in [17] it was 0.166 µM (≈ 0.4 µg/mL). Moreover, the MIC in [18] is 104 µM (≈ 250 µg/mL); in assay [19] it was above 207 µM; in [20], 0.166 µM (≈ 0.4 µg/mL); in assay [21], 31.1 µM (≈ 75 µg/mL); in assay [22], 0.29 µM (≈ 0.7 µg/mL); in assay [23] it was above 207 µM. In addition, the minimal inhibitory concentration (MIC) was 0.207 µM (≈ 0.5 µg/mL) in assay [24]; at least 39.3 µM in assay [25]; 9.13 µM (≈ 22 µg/mL) in assay [26]; 0.29 µM (≈ 0.7 µg/mL) in assay [27]; above 207 µM in assay [28]; at least 53.1 µM in assay [29]. For the same compound, the MIC in assay [30] was 0.373 µM (≈ 0.9 µg/mL); in [31], above 207 µM; in assay [32], at least 498 µM; in [33], 26.6 µM (≈ 64 µg/mL); in assay [34], 1.91 µM (≈ 4.6 µg/mL).

With `CC[C@H](C)[C@H](NC(=O)[C@@H]1CCCN1C(=O)[C@H](Cc1ccccc1)NC(=O)[C@@H](N)Cc1ccccc1)C(=O)N[C@H](C(=O)NCC(=O)N[C@@H](CCCCN)C(=O)N[C@@H](CC(C)C)C(=O)N[C@@H](CC(C)C)C(=O)N[C@@H](Cc1ccccc1)C(=O)NCC(=O)N[C@@H](CC(C)C)C(=O)N[C@@H](CC(C)C)C(N)=O)C(C)C` [FFPIVGKLLFGLL], the MIC was 3.42 µM (≈ 5 µg/mL) in assay [35]; 20.5 µM (≈ 30 µg/mL) in assay [36]; at least 51.2 µM in [37]; 10.2 µM (≈ 15 µg/mL) in [38]; 5.12 µM (≈ 7.5 µg/mL) in assay [39]; at least 41 µM in [40]. The figures for the MIC in assay [18] and in assay [4] were 10.2 µM (≈ 15 µg/mL) and 5.12 µM (≈ 7.5 µg/mL), respectively.

`NC(=O)[C@H](Cc1c[nH]c2ccccc12)NC(=O)[C@H](CCCN=C(N)N)NC(=O)[C@H](Cc1c[nH]c2ccccc12)NC(=O)[C@H](CCCN=C(N)N)NC(=O)[C@H](Cc1c[nH]c2ccccc12)NC(=O)[C@H](CCCN=C(N)N)NC(=O)[C@H](Cc1c[nH]c2ccccc12)NC(=O)[C@@H](N)CCCN=C(N)N` [RWRWRWRW]: the MIC worked out at 50 µM (≈ 69.3 µg/mL) in assay [41]; 6.25 µM (≈ 8.67 µg/mL) in assay [42]; 12.5 µM (≈ 17.3 µg/mL) in [43]; 23.1 µM (≈ 32 µg/mL) in [44]; 16 µM (≈ 22.2 µg/mL) in [45]; 8 µM (≈ 11.1 µg/mL) in assay [46].

On to `CC[C@H](C)[C@H](NC(=O)[C@H](C)NC(=O)[C@@H](NC(=O)[C@H](CC(=O)O)NC(=O)[C@H](CCCCN)NC(=O)[C@H](Cc1ccccc1)NC(=O)[C@@H](NC(=O)[C@H](CC(=O)O)NC(=O)[C@H](CC(C)C)NC(=O)[C@@H](NC(=O)CN)C(C)C)[C@@H](C)O)C(C)C)C(=O)NCC(=O)N[C@H](C(=O)N[C@@H](C)C(=O)N[C@@H](CCCCN)C(=O)NCC(=O)N[C@@H](C)C(=O)NCC(=O)N[C@H](C(=O)NCC(=O)N[C@H](C(=O)N[C@@H](CC(C)C)C(=O)N[C@@H](CCCCN)C(=O)N[C@@H](C)C(=O)N[C@@H](CC(C)C)C(=O)N[C@@H](CC(C)C)C(=O)N[C@H]1CSSC[C@@H](C(=O)O)NC(=O)[C@H](CO)NC(=O)[C@H](CCCCN)NC(=O)[C@H](CC(=O)O)NC(=O)[C@H](CC(C)C)NC(=O)[C@H](CCCCN)NC1=O)C(C)C)[C@@H](C)O)C(C)C` [GVLDTFKDVAIGVAKGAGTGVLKALLCKLDKSC], for which the figures for the MIC in assay [47], in assay [39] and in [48] were 15 µM (≈ 49.3 µg/mL), at least 60 µM and 30 µM (≈ 98.7 µg/mL), respectively.

One may read the MIC as the least concentration at which growth counts as inhibited.
